In the NIST ThermoML archive (doi:10.1016/j.tca.2011.02.027):

Legend:
[1] = molar heat capacity at constant pressure; xn = mol fraction of the nth substance listed; conditions: 101.3 kPa, Liquid, Large sample (1 g) DSC
[2] = Crystal; DTA
[3] = molar heat capacity at constant pressure; conditions: 101.33 kPa, Liquid, Large sample (1 g) DSC

CCCCn1cc[n+](C)c1C.F[P-](F)(F)(F)(F)F [1-butyl-2,3-dimethylimidazolium hexafluorophosphate] + O
molar heat capacity at constant pressure [J/K/mol], [1]
Conditions	x1 = 0.8	x1 = 0.85	x1 = 0.9	x1 = 0.95	x1 = 1
303.2 K	387	396.4	407.2	418.3	–
308.2 K	389.2	398.4	409.4	420.5	–
313.2 K	391.2	400.5	411.9	423.3	–
318.2 K	393.4	402.7	414.5	426	–
323.2 K	395.9	405.5	417.7	429.4	439.3
328.2 K	398.9	408.8	421.3	433.2	442.9
333.2 K	401.8	411.9	424.7	436.7	446.2
338.2 K	404.5	414.9	428	440.1	449.4
343.2 K	407.5	417.9	431.2	443.5	452.7
348.2 K	411.1	421.7	435.2	447.6	457
353.2 K	414.1	424.8	438.3	450.9	460.1
358.2 K	–	–	–	–	464.4
363.2 K	–	–	–	–	468
368.2 K	–	–	–	–	471.6
373.2 K	–	–	–	–	475.1
378.2 K	–	–	–	–	478.9
383.2 K	–	–	–	–	482.6

CCCCn1cc[n+](C)c1C.F[B-](F)(F)F [1-butyl-2,3-dimethylimidazolium tetrafluoroborate]
Conditions	Normal melting temperature [°C]
[2]	32.00

[3]
Conditions	molar heat capacity at constant pressure [J/K/mol]
313.2 K	397.3
318.2 K	398.8
323.2 K	400.6
328.2 K	403.3
333.2 K	405.4
338.2 K	407.8
343.2 K	410.6
348.2 K	413.5
353.2 K	416.5
358.2 K	420.2
363.2 K	423.6
368.2 K	427.3
373.2 K	430.6
378.2 K	434.4
383.2 K	436.3

CCCCn1cc[n+](C)c1C.F[B-](F)(F)F [1-butyl-2,3-dimethylimidazolium tetrafluoroborate] + O
molar heat capacity at constant pressure [J/K/mol], [1]
Conditions	x1 = 0.2	x1 = 0.4	x1 = 0.6	x1 = 0.8	x1 = 1
303.2 K	146.9	217.5	284.4	343	–
308.2 K	147.2	218.2	285.6	344.2	–
313.2 K	147.8	219.3	287	346.3	397.3
318.2 K	148.4	220.4	288.6	348.5	398.8
323.2 K	149.1	221.7	290.3	351	400.6
328.2 K	149.8	223.2	292.1	353.2	403.3
333.2 K	150.4	224.1	293.5	355.6	405.4
338.2 K	151.1	225.2	295.7	358.1	407.8
343.2 K	151.7	226.4	297.6	360.8	410.6
348.2 K	152.4	227.7	299.5	363.5	413.5
353.2 K	153.1	229.2	301.7	366.3	416.5
358.2 K	–	–	–	–	420.2
363.2 K	–	–	–	–	423.6
368.2 K	–	–	–	–	427.3
373.2 K	–	–	–	–	430.6
378.2 K	–	–	–	–	434.4
383.2 K	–	–	–	–	436.3

CCCCn1cc[n+](C)c1C.F[P-](F)(F)(F)(F)F [1-butyl-2,3-dimethylimidazolium hexafluorophosphate]
Conditions	Normal melting temperature [°C]
[2]	38.00

[3]
Conditions	molar heat capacity at constant pressure [J/K/mol]
323.2 K	439.3
328.2 K	442.9
333.2 K	446.2
338.2 K	449.4
343.2 K	452.7
348.2 K	457
353.2 K	460.1
358.2 K	464.4
363.2 K	468
368.2 K	471.6
373.2 K	475.1
378.2 K	478.9
383.2 K	482.6

CCCCn1cc[n+](C)c1.[Br-] [1-butyl-3-methylimidazolium bromide]
Conditions	Normal melting temperature [°C]
[2]	73.00

[3]
Conditions	molar heat capacity at constant pressure [J/K/mol]
353.2 K	334.8
358.2 K	338.1
363.2 K	341.1
368.2 K	344.6
373.2 K	347.5
378.2 K	350.6
383.2 K	354.1
388.2 K	356.7
393.2 K	359.9
398.2 K	363.4
403.2 K	366.4

CCCCn1cc[n+](C)c1.[Cl-] [1-butyl-3-methylimidazolium chloride]
Conditions	Normal melting temperature [°C]
[2]	57.00

[3]
Conditions	molar heat capacity at constant pressure [J/K/mol]
343.2 K	337.2
348.2 K	340.3
353.2 K	343.3
358.2 K	347.1
363.2 K	350.6
368.2 K	354.3
373.2 K	357.6
378.2 K	361
383.2 K	364.3
388.2 K	367.4
393.2 K	370.7
398.2 K	374
403.2 K	376.8

CCCCn1cc[n+](C)c1.[Cl-] [1-butyl-3-methylimidazolium chloride] + O
molar heat capacity at constant pressure [J/K/mol], [1]
Conditions	x1 = 0.2	x1 = 0.4	x1 = 0.6	x1 = 0.8	x1 = 1
303.2 K	125.6	170.2	218.6	272.6	–
308.2 K	126.7	171.6	220	274.4	–
313.2 K	127.7	173	221.8	276.3	–
318.2 K	128.6	174.5	223.9	279.3	–
323.2 K	129.9	176.2	225.9	280.9	–
328.2 K	130.9	177.6	228	282.9	–
333.2 K	131.8	179	230	285.5	–
338.2 K	133.1	180.5	232	288.2	–
343.2 K	133.8	182.2	234.1	290.5	337.2
348.2 K	135.2	183.6	236.4	293.1	340.3
353.2 K	136	185.9	238.6	296.3	343.3
358.2 K	–	–	–	–	347.1
363.2 K	–	–	–	–	350.6
368.2 K	–	–	–	–	354.3
373.2 K	–	–	–	–	357.6
378.2 K	–	–	–	–	361
383.2 K	–	–	–	–	364.3
388.2 K	–	–	–	–	367.4
393.2 K	–	–	–	–	370.7
398.2 K	–	–	–	–	374
403.2 K	–	–	–	–	376.8
